Here are results for 5 molecules from PubChem BioAssay AID1259411 (Chemical Carcinogenesis Research Information System (CCRIS), 2018).

Structures are written as SMILES. Activity calls are given as the source filed them. The rule behind the calls is not given here.

For the data set, the system named is rodent carcinogenicity bioassays, tumor incidence. As to the kind of experiment: CCRIS carcinogenicity studies. The method in brief: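 Archive of carcinogenicity, mutagenicity, tumor promotion and tumor inhibition results drawn from journals, NCI reports and other sources, expert-reviewed; covers 1985-2011 and is no longer updated.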

Regarding `CCSCCC(N)C(=O)O` (stereo unspecified), the carcinogen call was “active; positive” (Species: RAT, Strain/Sex: F344/MALE, Route: ORAL, Dose: 0, 0.05% IN METHYL-DEFICIENT DIET FOR 8 MO, STUDY DURATION: 20 MO, Dose: 0, 0.05% IN METHYL-DEFICIENT DIET FOR 8 MO, STUDY DURATION: 20 MO, Tumor Site: Type of Lesion: LIVER: HEPATOCELLULAR CARCINOMA); “active; positive” (Species: RAT, Strain/Sex: F344/MALE, Route: ORAL, Dose: 0.25% IN DIET FOR 24 WK, Tumor Site: Type of Lesion: LIVER); “active; positive” (Species: RAT, Strain/Sex: OSBORNE-MENDEL/MALE,FEMALE, Route: ORAL, Dose: 0.25% IN BASAL DIET FOR 8-9 MO, Tumor Site: Type of Lesion: LIVER: CARCINOMA); “active; positive” (Species: RAT, Strain/Sex: SPRAGUE-DAWLEY, Route: ORAL, Dose: 0.25% IN DIET FOR 8 MO, Tumor Site: Type of Lesion: LIVER: CARCINOMA); “active; positive” (Species: RAT, Strain/Sex: WISTAR/MALE,FEMALE, Route: ORAL, Dose: 0.25% IN BASAL DIET FOR 8 MO THEN STOCK DIET FOR 2 MO, Tumor Site: Type of Lesion: LIVER: CARCINOMA).
Consider `CC(C)NCCCC1(C(N)=O)c2ccccc2-c2ccccc21`, for which the carcinogen call runs as follows: (Species: MOUSE, Strain/Sex: B6C3F1/FEMALE, Route: ORAL, Dose: 0, 0.02, 0.04, 0.08% IN DIET FOR APPROXIMATE DAILY DOSES OF 0, 27, 53, 113 MG/KG (STUDY DURATION: 2 YR), Dose: 0, 0.02, 0.04, 0.08% IN DIET FOR APPROXIMATE DAILY DOSES OF 0, 27, 53, 113 MG/KG (STUDY DURATION: 2 YR)) “inactive; negative”; (Species: MOUSE, Strain/Sex: B6C3F1/MALE, Route: ORAL, Dose: 0, 0.02, 0.04, 0.08% IN DIET FOR APPROXIMATE DAILY DOSES OF 0, 27, 53, 113 MG/KG (STUDY DURATION: 2 YR), Dose: 0, 0.02, 0.04, 0.08% IN DIET FOR APPROXIMATE DAILY DOSES OF 0, 27, 53, 113 MG/KG (STUDY DURATION: 2 YR)) “inactive; negative”; (Species: RAT, Strain/Sex: F344/FEMALE, Route: ORAL, Dose: 0, 0.02, 0.04, 0.08% IN DIET FOR APPROXIMATE DAILY DOSES OF 0, 9, 18, 37 MG/KG (STUDY DURATION: 2 YR), Dose: 0, 0.02, 0.04, 0.08% IN DIET FOR APPROXIMATE DAILY DOSES OF 0, 9, 18, 37 MG/KG (STUDY DURATION: 2 YR)) “inactive; negative”; (Species: RAT, Strain/Sex: F344/MALE, Route: ORAL, Dose: 0, 0.02, 0.04, 0.08% IN DIET FOR APPROXIMATE DAILY DOSES OF 0, 9, 18, 37 MG/KG (STUDY DURATION: 2 YR), Dose: 0, 0.02, 0.04, 0.08% IN DIET FOR APPROXIMATE DAILY DOSES OF 0, 9, 18, 37 MG/KG (STUDY DURATION: 2 YR)) “inactive; negative”.
Consider `CC(=O)CCNCN=O`, for which the carcinogen call runs as follows: (Species: HAMSTER, Strain/Sex: SYRIAN/FEMALE, Route: SUBCUTANEOUS, Dose: 20.25, 40.5, 81MG/KG 1/WK FOR LIFE, Dose: 20.25, 40.5, 81MG/KG 1/WK FOR LIFE, Tumor Site: Type of Lesion: NASAL CAVITY: ADENOCARCINOMA, ORAL CAVITY (CHEEK POUCH): SQUAMOUS CELL PAPILLOMA, SQUAMOUS CELL CARCINOMA, COLON: CARCIN, Tumor Site: Type of Lesion: NASAL CAVITY: ADENOCARCINOMA, ORAL CAVITY (CHEEK POUCH): SQUAMOUS CELL PAPILLOMA, SQUAMOUS CELL CARCINOMA, COLON: CARCIN) “active; positive”; (Species: HAMSTER, Strain/Sex: SYRIAN/MALE, Route: SUBCUTANEOUS, Dose: 17.63, 35.25, 70.5 MG/KG 1/WKFOR LIFE, Dose: 17.63, 35.25, 70.5 MG/KG 1/WKFOR LIFE, Tumor Site: Type of Lesion: NASAL CAVITY: ADENOCARCINOMA, ORAL CAVITY (CHEEK POUCH): SQUAMOUS CELL PAPILLOMA, SQUAMOUS CELL CARCINOMA, COLON: CARCIN, Tumor Site: Type of Lesion: NASAL CAVITY: ADENOCARCINOMA, ORAL CAVITY (CHEEK POUCH): SQUAMOUS CELL PAPILLOMA, SQUAMOUS CELL CARCINOMA, COLON: CARCIN) “active; positive”.
As to `O=S(=O)(O)NC1CCCCC1`, the carcinogen call (Species: MONKEY, Strain/Sex: CYNOMOLGUS, RHESUS, AFRICAN GREEN/MALE, FEMALE, Route: ORAL, Dose: 0, 100, 500 MG/KG IN DIET FOR 24 YR (STUDY DURATION: 24 YR), Dose: 0, 100, 500 MG/KG IN DIET FOR 24 YR (STUDY DURATION: 24 YR)) was “inactive; negative”; the carcinogen call (Species: RAT, Strain/Sex: ALBINO/MALE,FEMALE, Route: SUBCUTANEOUS, Dose: 5, 15% IN AQ SOLN 3/WK FOR 85 OR 107 WK, Tumor Site: Type of Lesion: INJECTION SITE: FIBROSARCOMA) was “active; positive”; the carcinogen call (Species: RAT, Strain/Sex: SPRAGUE-DAWLEY/MALE,FEMALE, Route: ORAL, Dose: 2, 5% IN DIET PRENATALLY AND FOR LIFE) was “inactive; negative”.
Consider `CC(=O)OC/N=[N+](/C)[O-]`, for which the carcinogen call is “active; positive” (Species: FISH, Strain/Sex: MOSQUITOFISH/MALE, FEMALE, Route: IMMERSION, Dose: 0, 10 MG/L IN WATER FOR 2 HR EXPOSURE (STUDY DURATION: 40 WK), Tumor Site: Type of Lesion: LIVER: TUMOR); “active; positive” (Species: MONKEY, Strain/Sex: AFRICAN GREEN/MALE,FEMALE, Route: INTRAPERITONEAL, Dose: 1.94-9.66 G TOTAL DOSE, 1/WK FOR UP TO 89 MO, Tumor Site: Type of Lesion: LIVER: HEPATOCELLULAR CARCINOMA, HEMANGIOSARCOMA, KIDNEY: RENAL CELL CARCINOMA, ESOPHAGUS: SQUAMOUS CELL CARCINOMA, CECU, Tumor Site: Type of Lesion: LIVER: HEPATOCELLULAR CARCINOMA, HEMANGIOSARCOMA, KIDNEY: RENAL CELL CARCINOMA, ESOPHAGUS: SQUAMOUS CELL CARCINOMA, CECU); “active; positive” (Species: MONKEY, Strain/Sex: CYNOMOLGUS/MALE,FEMALE, Route: INTRAPERITONEAL, Dose: 1.94-9.66 G TOTAL DOSE, 1/WK FOR UP TO 89 MO, Tumor Site: Type of Lesion: LIVER: HEPATOCELLULAR CARCINOMA, HEMANGIOSARCOMA, KIDNEY: RENAL CELL CARCINOMA, ESOPHAGUS: SQUAMOUS CELL CARCINOMA, CECU, Tumor Site: Type of Lesion: LIVER: HEPATOCELLULAR CARCINOMA, HEMANGIOSARCOMA, KIDNEY: RENAL CELL CARCINOMA, ESOPHAGUS: SQUAMOUS CELL CARCINOMA, CECU); “active; positive” (Species: MONKEY, Strain/Sex: RHESUS/MALE,FEMALE, Route: INTRAPERITONEAL, Dose: 1.94-9.66 G TOTAL DOSE, 1/WK FOR UP TO 89 MO, Tumor Site: Type of Lesion: LIVER: HEPATOCELLULAR CARCINOMA, HEMANGIOSARCOMA, KIDNEY: RENAL CELL CARCINOMA, ESOPHAGUS: SQUAMOUS CELL CARCINOMA, CECU, Tumor Site: Type of Lesion: LIVER: HEPATOCELLULAR CARCINOMA, HEMANGIOSARCOMA, KIDNEY: RENAL CELL CARCINOMA, ESOPHAGUS: SQUAMOUS CELL CARCINOMA, CECU); “active; positive” (Species: MOUSE, Route: SUBCUTANEOUS, Dose: 0.2-0.4 MG, SINGLE DOSE, Tumor Site: Type of Lesion: UNSPECIFIED: TUMOR); “active; positive” (Species: MOUSE, Strain/Sex: BALB/FEMALE, Route: DERMAL, Dose: 0, 0.5 MG PAINTED ON ANAL REGION 3/WK FOR 24 WK (STUDY DURATION: 24 WK), Tumor Site: Type of Lesion: PERIANAL SEBACEOUS GLAND: SQUAMOUS CELL CARCINOMA, ADENOMA). The carcinogen call reads like this: (Species: MOUSE, Strain/Sex: BALB/MALE, Route: DERMAL, Dose: 0, 0.5 MG PAINTED ON ANAL REGION 3/WK FOR 24 WK (STUDY DURATION: 30 WK), Tumor Site: Type of Lesion: PERIANAL SEBACEOUS GLAND: SQUAMOUS CELL CARCINOMA, BLOOD VESSELS: HEMANGIOMA OR HEMANGIOENDOTHELIOMA) “active; positive”; (Species: RAT, Route: INTRAPERITONEAL, SUBCUTANEOUS, Tumor Site: Type of Lesion: BILE DUCT, INTESTINES, KIDNEY, Tumor Site: Type of Lesion: BILE DUCT, INTESTINES, KIDNEY) “active; positive”; (Species: RAT, Route: INTRAVENOUS, ORAL, Tumor Site: Type of Lesion: INTESTINES, KIDNEY, LIVER, Tumor Site: Type of Lesion: INTESTINES, KIDNEY, LIVER) “active; positive”; (Species: RAT, Route: RECTAL, Tumor Site: Type of Lesion: INTESTINES, KIDNEY) “active; positive”; (Species: RAT, Route: SUBCUTANEOUS, Dose: 12.5 MG TOTAL DOSE, 4 DOSES OVER 3 WK, Tumor Site: Type of Lesion: INTESTINES: NEOPLASMS, BILE DUCT: ADENOMA) “active; positive”; (Species: RAT, Strain/Sex: DONRYU/MALE, Route: RECTAL, Dose: 1 MG, 1/D FOR 7-26 D, Tumor Site: Type of Lesion: INTESTINES (LARGE): ADENOCARCINOMA, KIDNEY: NEPHROBLASTOMA) “active; positive”.
